Calls of active or inactive are those of the source.
Tests used:
Cysteine protease ATG4B = target: T1, Cysteine protease ATG4B (Homo sapiens, UniProt Q9Y4P1); assay type: functional;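 also: Fluorescence-based dose-response confirmation assay measuring inhibition of ATG4B activity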
T1 sequence (Q9Y4P1 whole entry): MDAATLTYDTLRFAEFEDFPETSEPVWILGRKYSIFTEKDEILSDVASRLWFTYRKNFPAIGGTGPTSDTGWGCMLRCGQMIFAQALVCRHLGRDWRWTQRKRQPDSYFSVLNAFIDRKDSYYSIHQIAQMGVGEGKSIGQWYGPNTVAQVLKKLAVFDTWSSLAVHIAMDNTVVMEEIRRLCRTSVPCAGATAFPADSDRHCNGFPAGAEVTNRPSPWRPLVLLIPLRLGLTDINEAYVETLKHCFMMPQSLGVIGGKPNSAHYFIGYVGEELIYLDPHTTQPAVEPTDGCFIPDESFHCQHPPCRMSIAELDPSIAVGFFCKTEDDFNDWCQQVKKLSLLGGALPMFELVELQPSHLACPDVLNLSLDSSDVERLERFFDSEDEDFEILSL

Phospholipase A2 = Phospholipase A2 (Homo sapiens, UniProt P04054); assay type: functional;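 also: confirmatory dose-response counterscreen on phospholipase A2, testing hits that came from an ultra-high-throughput screen for ATG4B inhibitors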
Chain of Phospholipase A2 (P04054 whole entry, the tested form may be a part): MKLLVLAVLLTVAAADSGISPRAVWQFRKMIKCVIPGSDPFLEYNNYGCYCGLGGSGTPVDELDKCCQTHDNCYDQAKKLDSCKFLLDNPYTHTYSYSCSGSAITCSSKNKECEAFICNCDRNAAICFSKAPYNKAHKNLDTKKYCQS

[1] = target: T2, RNA-binding protein pos-1 (Caenorhabditis elegans, UniProt G5EF15); experiment: disruptors of C. elegans POS-1 RNA interaction – biochemical, fluorescence polarization, dose response (AID 1964);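 also: purified POS-1 fused to maltose binding protein made in E. coli; potency of compounds blocking POS-1 binding to fluorescent RNA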
T2 sequence (G5EF15 whole entry): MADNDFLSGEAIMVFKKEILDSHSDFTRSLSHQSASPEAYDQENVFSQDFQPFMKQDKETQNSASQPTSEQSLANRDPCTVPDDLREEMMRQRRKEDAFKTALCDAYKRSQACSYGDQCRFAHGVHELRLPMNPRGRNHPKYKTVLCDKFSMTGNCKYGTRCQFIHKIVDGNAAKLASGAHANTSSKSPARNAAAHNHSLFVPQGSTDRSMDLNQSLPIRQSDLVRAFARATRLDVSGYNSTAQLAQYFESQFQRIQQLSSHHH

[2] = target: T3, Zinc finger protein mex-5 (Caenorhabditis elegans, UniProt Q9XUB2); experiment: potency of MEX-5 RNA-binding blockers – biochemical, C. elegans, fluorescence polarization, dose response (AID 1960)
T3 sequence (Q9XUB2 whole entry): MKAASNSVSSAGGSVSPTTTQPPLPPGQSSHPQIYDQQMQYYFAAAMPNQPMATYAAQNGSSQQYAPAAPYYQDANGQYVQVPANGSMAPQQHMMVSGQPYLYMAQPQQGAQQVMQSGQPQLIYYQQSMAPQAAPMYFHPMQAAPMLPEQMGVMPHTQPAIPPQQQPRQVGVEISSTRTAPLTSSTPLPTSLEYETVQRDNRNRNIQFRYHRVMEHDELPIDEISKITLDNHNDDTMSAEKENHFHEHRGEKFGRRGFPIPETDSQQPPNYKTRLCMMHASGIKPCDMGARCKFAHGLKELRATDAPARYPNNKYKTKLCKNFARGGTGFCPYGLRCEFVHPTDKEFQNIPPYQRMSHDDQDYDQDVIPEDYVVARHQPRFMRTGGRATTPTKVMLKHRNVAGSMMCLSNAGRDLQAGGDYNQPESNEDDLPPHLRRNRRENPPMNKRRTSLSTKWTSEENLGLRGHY

[3] = viability of uninfected HEp-2 cells – cell-based, HTS, cytotoxicity control for RSV inhibitor project, dose response (AID 2410); assay type: functional; conditions: human respiratory syncytial virus
[4] = blockers of bursicon-stimulated LGR2 cAMP reporter – cell-based, HEK293, CRE-luciferase reporter, cherry pick, set 2, dose response (AID 743343); assay type: functional;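 also: transfected cells were stimulated with diluted bursicon conditioned medium after compound addition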
Cytochrome P450 3A4 = Cytochrome P450 3A4 (Homo sapiens, UniProt P08684); conditions: Potency;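 also: confirmatory qHTS run detecting inhibitors and substrates of CYP3A4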
Chain of Cytochrome P450 3A4 (P08684 whole entry): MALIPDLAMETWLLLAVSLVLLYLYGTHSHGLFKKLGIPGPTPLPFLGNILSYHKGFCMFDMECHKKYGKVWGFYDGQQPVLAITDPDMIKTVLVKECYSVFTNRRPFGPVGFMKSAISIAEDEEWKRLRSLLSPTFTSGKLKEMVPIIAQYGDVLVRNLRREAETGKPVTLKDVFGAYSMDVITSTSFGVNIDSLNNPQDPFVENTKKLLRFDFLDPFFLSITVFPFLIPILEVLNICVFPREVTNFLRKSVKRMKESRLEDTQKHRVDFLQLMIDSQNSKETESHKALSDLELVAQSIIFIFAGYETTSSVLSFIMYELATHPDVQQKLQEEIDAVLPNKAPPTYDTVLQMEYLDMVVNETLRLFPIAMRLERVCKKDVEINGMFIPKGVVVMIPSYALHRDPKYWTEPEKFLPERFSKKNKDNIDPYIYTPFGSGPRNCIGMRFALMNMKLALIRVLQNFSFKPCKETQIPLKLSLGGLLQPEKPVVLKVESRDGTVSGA

Aminopeptidase N = target: T4, Aminopeptidase N (Plasmodium falciparum FcB1/Columbia, UniProt O96935); experiment: malaria alanyl aminopeptidase activity blockers – biochemical, fluorogenic H-Leu-NHMec substrate, 1536-well (AID 1445); set-up: species or system Plasmodium falciparum 3D7, 3D7
T4 sequence (O96935 whole entry): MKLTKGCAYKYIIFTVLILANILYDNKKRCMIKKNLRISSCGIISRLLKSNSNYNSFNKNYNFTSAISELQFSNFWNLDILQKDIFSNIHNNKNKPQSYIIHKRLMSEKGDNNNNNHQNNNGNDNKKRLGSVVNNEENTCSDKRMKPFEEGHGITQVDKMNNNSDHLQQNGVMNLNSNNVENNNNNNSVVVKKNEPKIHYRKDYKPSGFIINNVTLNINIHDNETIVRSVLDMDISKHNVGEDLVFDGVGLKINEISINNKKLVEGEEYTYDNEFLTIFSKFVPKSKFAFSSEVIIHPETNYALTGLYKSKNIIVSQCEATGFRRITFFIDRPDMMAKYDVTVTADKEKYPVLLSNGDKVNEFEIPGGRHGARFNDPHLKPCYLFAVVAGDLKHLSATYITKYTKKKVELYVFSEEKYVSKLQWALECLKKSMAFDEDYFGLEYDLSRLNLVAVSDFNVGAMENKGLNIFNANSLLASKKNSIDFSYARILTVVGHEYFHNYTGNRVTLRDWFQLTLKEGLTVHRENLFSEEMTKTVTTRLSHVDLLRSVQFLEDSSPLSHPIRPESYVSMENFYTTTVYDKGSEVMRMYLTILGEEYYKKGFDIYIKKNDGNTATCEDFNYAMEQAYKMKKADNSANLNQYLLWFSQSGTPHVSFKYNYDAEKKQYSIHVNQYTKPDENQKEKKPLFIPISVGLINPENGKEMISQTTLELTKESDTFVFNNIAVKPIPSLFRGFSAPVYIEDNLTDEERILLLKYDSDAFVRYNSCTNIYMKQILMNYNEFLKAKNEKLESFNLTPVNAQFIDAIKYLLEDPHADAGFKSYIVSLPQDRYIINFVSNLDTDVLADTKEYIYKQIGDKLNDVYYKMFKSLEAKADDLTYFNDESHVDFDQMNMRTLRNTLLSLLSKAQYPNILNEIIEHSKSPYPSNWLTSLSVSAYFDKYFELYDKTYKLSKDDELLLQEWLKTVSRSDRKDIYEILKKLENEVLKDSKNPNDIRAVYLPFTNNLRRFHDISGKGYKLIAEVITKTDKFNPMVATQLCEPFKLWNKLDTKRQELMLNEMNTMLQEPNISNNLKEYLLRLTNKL

Genome polyprotein = Genome polyprotein (dengue virus type 2, UniProt P29990); experiment: flavivirus cap methylation enzyme inhibition – biochemical, confirmation dose response, primary screen (AID 588689); assay type: functional
Chain of Genome polyprotein (P29990 2492-3391 limits assumed): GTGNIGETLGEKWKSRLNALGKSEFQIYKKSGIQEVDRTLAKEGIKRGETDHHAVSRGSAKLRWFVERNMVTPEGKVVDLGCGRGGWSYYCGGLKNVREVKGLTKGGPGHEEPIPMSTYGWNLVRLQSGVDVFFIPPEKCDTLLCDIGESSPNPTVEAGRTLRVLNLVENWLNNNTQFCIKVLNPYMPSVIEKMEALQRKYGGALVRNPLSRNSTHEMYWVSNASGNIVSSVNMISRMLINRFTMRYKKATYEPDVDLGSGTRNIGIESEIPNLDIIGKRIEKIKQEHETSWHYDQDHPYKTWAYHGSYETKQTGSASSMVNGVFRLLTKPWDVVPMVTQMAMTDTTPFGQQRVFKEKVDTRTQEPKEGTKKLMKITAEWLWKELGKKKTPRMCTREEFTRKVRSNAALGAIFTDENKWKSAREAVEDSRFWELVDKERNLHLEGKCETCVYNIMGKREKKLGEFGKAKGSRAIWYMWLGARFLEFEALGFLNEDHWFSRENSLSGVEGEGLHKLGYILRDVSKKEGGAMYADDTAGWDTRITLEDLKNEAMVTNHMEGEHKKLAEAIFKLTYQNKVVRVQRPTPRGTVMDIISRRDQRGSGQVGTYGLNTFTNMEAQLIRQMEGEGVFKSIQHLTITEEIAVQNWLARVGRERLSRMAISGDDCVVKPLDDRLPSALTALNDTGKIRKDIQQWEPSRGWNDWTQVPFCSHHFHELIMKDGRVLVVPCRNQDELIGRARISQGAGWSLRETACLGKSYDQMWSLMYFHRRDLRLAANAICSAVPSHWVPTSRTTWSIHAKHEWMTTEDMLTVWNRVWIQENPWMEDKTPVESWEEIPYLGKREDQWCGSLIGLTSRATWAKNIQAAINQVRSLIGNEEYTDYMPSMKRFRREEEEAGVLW

[5] = activation of miR-122 Renilla sensor silencing – cell-based, Huh7 psiCHECK-miR122, Renilla luciferase, cherry-picked, dose response (AID 651956); assay type: functional;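 also: huh7 hepatoma cells stably carrying a psiCHECK-2 miR-122 sensor plasmid; renilla luciferase signal reporting endogenous miR-122 activity after 48 h compound exposure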
Paired box protein Pax-8 = Paired box protein Pax-8 (Homo sapiens, UniProt Q06710); experiment: PAX8 transcriptional activity inhibition in RMG-I – RMG-I cells, luciferase, cherry-pick, dose response (AID 687027); assay type: functional, cell-based;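 also: luciferase reporter driven by Pax8 target thyroperoxidase promoter measured by SteadyGlo luminescence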
Chain of Paired box protein Pax-8 (Q06710 whole entry): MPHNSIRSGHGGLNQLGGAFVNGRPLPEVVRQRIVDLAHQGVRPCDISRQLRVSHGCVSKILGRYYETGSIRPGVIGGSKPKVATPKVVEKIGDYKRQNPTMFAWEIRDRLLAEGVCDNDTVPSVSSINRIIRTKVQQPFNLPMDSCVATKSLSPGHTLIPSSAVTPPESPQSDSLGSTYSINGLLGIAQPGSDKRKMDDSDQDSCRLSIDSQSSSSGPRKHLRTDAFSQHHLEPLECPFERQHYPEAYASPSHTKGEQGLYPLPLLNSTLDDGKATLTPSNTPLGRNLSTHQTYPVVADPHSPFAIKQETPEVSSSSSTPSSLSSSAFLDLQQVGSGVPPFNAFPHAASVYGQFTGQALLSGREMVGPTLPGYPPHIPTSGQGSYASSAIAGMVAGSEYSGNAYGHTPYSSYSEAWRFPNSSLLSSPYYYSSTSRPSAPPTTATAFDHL

[6] = growth inhibition of yeast DHODH-expressing 3D7 parasites – SYBR Green, dry powder samples, dose response (AID 1159570); assay type: functional, cell-based;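 also: parasite growth measured after 72 hours of compound exposure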
[7] = toxicity to human HepG2 hepatoma cells – cell-based, plate reader, dry powder samples, cytotoxicity control, dose response (AID 1159569); assay type: functional;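 also: inhibitor potency with signal falling toward the positive control level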
[8] = P. falciparum Dd2 growth inhibitors, dose response, SYBR Green, cherry-picked samples (AID 1159567); assay type: functional, cell-based
[9] = Dd2 malaria parasite growth inhibition potency – SYBR Green, dry powder samples, dose response (AID 1159566); assay type: functional, cell-based;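 also: potency for growth inhibition with lower SYBR green DNA signal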
[10] = growth inhibition of PfATP4-mutant resistant parasites – NITD609-resistant line, SYBR Green, dry powder, dose response (AID 1159571); assay type: functional, cell-based;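 also: parasites synchronized at ring stage by sorbitol before testing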

| Structure (SMILES) | AC50 [6] | AC50 [7] | AC50 [8] | AC50 [9] | AC50 [10] | also measured |
| --- | --- | --- | --- | --- | --- | --- |
| O=C1Nc2cc(Cl)c(Cl)cc2N(O)N1c1cc(Cl)cc(Cl)c1 | – | – | – | – | – | IC50 (Cysteine protease ATG4B): 14.5 µM (active); IC50 (Phospholipase A2): 13.7 µM (active) |
| O=C(c1ccc(Br)o1)N1CCN=C1SCc1cccc(F)c1 | – | – | – | – | – | EC50 [1]: > 300 µM (not active); EC50 [2]: > 300 µM (not active) |
| CC(C)(C)NC(=O)c1cccc(NC(=O)c2ccc3c(c2)C(=O)N(C(C)(C)C)C3=O)c1 | – | – | – | – | – | CC50 [3]: > 50 µM (active); AC50 [4]: 37.3 µM (active); IC50 (cells): 39.8 µM (active) |
| COC(=O)N1[C@H](C)C=C[C@]1(Cc1ccccc1)C(=O)NCc1ccc(N(C)C)cc1 | – | – | – | – | – | AC50 (Cytochrome P450 3A4): 1 µM (inconclusive) |
| O=C(Nc1ccc(Cl)cc1C(=O)O)c1ccc2c(c1)C(=O)N(Cc1ccco1)C2=O | – | – | – | – | – | IC50 (Aminopeptidase N): 137 µM (active); IC50 (Genome polyprotein): 46.3 µM (active) |
| C[C@H](CO)N1C[C@H](C)[C@@H](CN(C)C(=O)C2CCOCC2)Oc2cc(C#Cc3ccncc3)ccc2S1(=O)=O | – | – | – | – | – | AC50 [5]: 3.77 µM (active) |
| CCCNC(=O)C[C@@H]1CC[C@@H]2[C@H](COc3ccc(NS(=O)(=O)c4ccccc4C)cc3C(=O)N2C)O1 | – | – | – | – | – | AC50 [5]: 56 µM (active) |
| C[C@@H]1CN([C@@H](C)CO)S(=O)(=O)c2ccc(C#CC3CC3)cc2O[C@@H]1CN(C)C(=O)c1cccc(F)c1 | – | – | – | – | – | AC50 [5]: 8.3 µM (active) |
| C[C@H]1CN([C@@H](C)CO)C(=O)c2c(c3ccccc3n2C)-c2ccccc2CO[C@@H]1CN(C)Cc1ccc(-c2ccccc2)cc1 | 2.75 µM (active) | 22.2 µM (active) | 2.75 µM (active) | 1.49 µM (active) | 1.99 µM (active) | AC50 (Paired box protein Pax-8): 24.9 µM (active) |
| N#Cc1cccc(-c2ccc3c(c2)[C@H]2[C@H](CCN2Cc2ccncc2)[C@@H](CO)N3)c1 | 1.57 µM (active) | > 100 µM (inactive) | 1.99 µM (active) | 1.4 µM (active) | 3.28 µM (active) | – |
| C[C@H](CO)N1C[C@H](C)[C@H](CN(C)CC2CC2)Oc2ccc(NC(=O)Nc3cccc4ccccc34)cc2CC1=O | 2.51 µM (active) | 48.5 µM (active) | 2.51 µM (active) | 1.25 µM (active) | 2.47 µM (active) | – |
| Fc1cccc(-c2ccc([C@@H]3[C@@H]4CN(Cc5cncnc5)C[C@H]3N4)cc2)c1 | 4.51 µM (active) | 18.8 µM (active) | 1.36 µM (active) | 1.6 µM (active) | 2.67 µM (active) | – |

Reference: ChEMBL document CHEMBL1201862, “PubChem BioAssay data set” (2004)
